One assay concerns Staphylococcus aureus. In words: Antibacterial activity assay (MIC, broth dilution). Also noted: S. aureus Killing / Bacterial Killing S. aureus: unit not given here. In kind it is cell-based. The note with it: for MIC: Staphylococcus aureus, Table 21, read-out: Staphylococcus aureus MIC; for MIC SA USA300: Staphylococcus aureus USA 300 strain, broth microdilution; for S. aureus Killing: anti-bacterial activity (MIC), strain not stated.

The test system of the next assay is Enterococcus faecalis. In words: Antibacterial activity assay (MIC, broth dilution). The assay is classed as cell-based. The note with it: for MIC: Enterococcus faecalis, Table 21, read-out: Escherichia feacalis MIC; for MIC EF 15951: Enterococcus faecalis 15951, broth microdilution. In general terms: Dilution methods test growth across graded concentrations, often in twofold steps.

Each structure is given as a SMILES string. Structures can show the parent of a compound that is named as a salt.

By MIC is commonly meant the lowest concentration found to suppress growth. For `CN(CCC#N)c1ccc(/C=C/c2cc(-c3ccc(Br)cc3)cc(-c3ccc(Br)cc3)[o+]2)cc1.F[B-](F)(F)F`, the MIC in the assay with Staphylococcus aureus and in the assay on Enterococcus faecalis was more than 64 µg/mL in each case.
On to `CN(CCC#N)c1ccc(/C=C/c2cc(-c3ccccc3)cc(-c3ccccc3)[o+]2)cc1.F[B-](F)(F)F`, for which the minimum inhibitory concentration (MIC) in the assay on Staphylococcus aureus and with Enterococcus faecalis was more than 64 µg/mL throughout.
For the molecule `Cc1ccc(-c2cc(/C=C/c3ccc(N(C)CCC#N)cc3)[o+]c(-c3ccc(C)cc3)c2)cc1.F[B-](F)(F)F`, the MIC with Staphylococcus aureus and with Enterococcus faecalis was more than 64 µg/mL in each case.
Take `CN(CCC#N)c1ccc(/C=C/c2cc(-c3ccc(C(C)(C)C)cc3)cc(-c3ccc(C(C)(C)C)cc3)[o+]2)cc1.F[B-](F)(F)F`: the MIC in the assay on Staphylococcus aureus and with Enterococcus faecalis was more than 64 µg/mL throughout.
For `CN(C)c1ccc(/C=C/c2cc(-c3ccc(I)cc3)cc(-c3ccc(I)cc3)[o+]2)cc1.F[B-](F)(F)F`, the MIC with Staphylococcus aureus and in the assay on Enterococcus faecalis was more than 64 µg/mL throughout.
For the molecule `CN(C)c1ccc(/C=C/c2cc(-c3ccc(F)c(F)c3)cc(-c3ccc(F)c(F)c3)[o+]2)cc1.F[B-](F)(F)F`, the MIC in the assay with Staphylococcus aureus and in the assay with Enterococcus faecalis was more than 64 µg/mL throughout.
With `CN(CCC#N)c1ccc(/C=C/c2cc(-c3ccc(I)cc3)cc(-c3ccc(I)cc3)[o+]2)cc1.F[B-](F)(F)F`, the MIC with Staphylococcus aureus and in the assay with Enterococcus faecalis was more than 64 µg/mL throughout.
In the case of `CN(CCC#N)c1ccc(/C=C/c2cc(-c3ccc(C(F)(F)F)cc3)cc(-c3ccc(C(F)(F)F)cc3)[o+]2)cc1.F[B-](F)(F)F`, the MIC with Staphylococcus aureus and in the assay on Enterococcus faecalis was more than 64 µg/mL each time.
For the molecule `CN(CCC#N)c1ccc(/C=C/c2cc(-c3ccc(F)c(F)c3)cc(-c3ccc(F)c(F)c3)[o+]2)cc1.F[B-](F)(F)F`, the MIC in the assay on Staphylococcus aureus and in the assay with Enterococcus faecalis was more than 64 µg/mL in each case.
In the case of `CCN(CC)c1ccc(/C=C/c2cc(-c3ccc(F)cc3)cc(-c3ccc(F)cc3)[o+]2)c(O)c1.F[B-](F)(F)F`, the MIC is 64 µg/mL with Staphylococcus aureus and more than 64 µg/mL with Enterococcus faecalis.
The matching figures for `CCN(CCC#N)c1ccc(/C=C/c2cc(-c3ccc(Br)cc3)cc(-c3ccc(Br)cc3)[o+]2)c(C)c1.F[B-](F)(F)F`: more than 64 µg/mL and more than 64 µg/mL.
The matching figures for `CCN(CCC#N)c1ccc(/C=C/c2cc(-c3ccc(F)cc3)cc(-c3ccc(F)cc3)[o+]2)c(C)c1.F[B-](F)(F)F`: more than 64 µg/mL and more than 64 µg/mL.
Taken in the same sequence, the figures for `CCCN1CCCc2cc(/C=C/c3cc(-c4ccc(Br)cc4)cc(-c4ccc(Br)cc4)[o+]3)ccc21.F[B-](F)(F)F` were more than 64 µg/mL and more than 64 µg/mL.
As to `CCCN1CCCc2cc(/C=C/c3cc(-c4ccc(F)cc4)cc(-c4ccc(F)cc4)[o+]3)ccc21.F[B-](F)(F)F`, the MIC with Staphylococcus aureus and in the assay with Enterococcus faecalis was more than 64 µg/mL throughout.
For `CN(C)c1ccc(/C=C/c2cc(-c3ccc(F)cc3)cc(-c3ccc(F)cc3)[n+]2C)cc1.[I-]` [Compound 2jc39-1, (E)-2-(4-(dimethylamino)styryl)-4,6-bis(4-fluorophenyl)-1-methylpyridin-1-ium iodide salt], the MIC SA USA300 against Staphylococcus aureus was 4 µg/mL. The same molecule registered an MIC EF 15951 against Enterococcus faecalis of 4 µg/mL.
In the case of `CN(CCC#N)c1ccc(/C=C/c2cc(-c3ccc(F)cc3)cc(-c3ccc(F)cc3)[n+]2C)cc1.[I-]` [Compound 2jc39-2, (E)-2-(4-((2-cyanoethyl)(methyl)amino)styryl)-4,6-bis(4-fluorophenyl)-1-methylpyridin-1-ium iodide salt], the MIC SA USA300 in the assay on Staphylococcus aureus was determined as 16 µg/mL. This molecule registered an MIC EF 15951 against Enterococcus faecalis of 16 µg/mL.
Consider `CN(C)c1ccc(/C=C/c2cc(-c3ccc(F)cc3)cc(-c3ccc(Br)cc3)[n+]2C)cc1.[I-]` [Compound 2jc39-3, (E)-2-(4-bromophenyl)-6-(4-(dimethylamino)styryl)-4-(4-fluorophenyl)-1-methylpyridin-1-ium iodide salt], for which the MIC SA USA300 in the assay with Staphylococcus aureus was 4 µg/mL. Moreover, the MIC EF 15951 against Enterococcus faecalis turned out to be 4 µg/mL.
In the assay on Staphylococcus aureus, `CN(CCC#N)c1ccc(/C=C/c2cc(-c3ccc(F)cc3)cc(-c3ccc(Br)cc3)[n+]2C)cc1.[I-]` [Compound 2jc39-4] gave an MIC SA USA300 of 16 µg/mL. For the same molecule, the MIC EF 15951 in the assay on Enterococcus faecalis is 16 µg/mL.
Consider `CN(C)c1ccc(/C=C/c2cc(-c3ccc(Cl)cc3)cc(-c3ccc(F)cc3)[n+]2C)cc1.[I-]` [Compound 2jc43-1, (E)-4-(4-chlorophenyl)-2-(4-(dimethylamino)styryl)-6-(4-fluorophenyl)-1-methylpyridin-1-ium iodide salt], for which the MIC SA USA300 with Staphylococcus aureus was found to be 4 µg/mL. Further, in the assay with Enterococcus faecalis, the MIC EF 15951 amounted to 2 µg/mL.
The matching figures for `CN(CCC#N)c1ccc(/C=C/c2cc(-c3ccc(Cl)cc3)cc(-c3ccc(F)cc3)[n+]2C)cc1.[I-]` [Compound 2jc43-2, (E)-4-(4-chlorophenyl)-2-(4-((2-cyanoethyl)(methyl)amino)styryl)-6-(4-fluorophenyl)-1-methylpyridin-1-ium iodide salt]: 2 µg/mL and 2 µg/mL.
The matching figures for `CN(C)c1ccc(/C=C/c2cc(-c3ccc(Cl)cc3)cc(-c3ccc(Br)cc3)[n+]2C)cc1.[I-]` [Compound 2jc43-3, (E)-2-(4-bromophenyl)-4-(4-chlorophenyl)-6-(4-(dimethylamino)styryl)-1-methylpyridin-1-ium iodide salt]: 2 µg/mL and 2 µg/mL.
In the case of `CN(CCC#N)c1ccc(/C=C/c2cc(-c3ccc(Cl)cc3)cc(-c3ccc(Br)cc3)[n+]2C)cc1.[I-]` [Compound 2jc43-4, (E)-2-(4-bromophenyl)-4-(4-chlorophenyl)-6-(4-((2-cyanoethyl)(methyl)amino)styryl)-1-methylpyridin-1-ium iodide salt], in the assay with Staphylococcus aureus, the MIC SA USA300 amounted to 32 µg/mL. In addition, the MIC EF 15951 in the assay with Enterococcus faecalis was 16 µg/mL.
Regarding `CN(C)c1ccc(/C=C/c2cc(-c3ccc(N(C)C)cc3)cc(-c3ccc(F)cc3)[n+]2C)cc1.[I-]` [Compound 3jc01-1, (E)-4-(4-(dimethylamino)phenyl)-2-(4-(dimethylamino)styryl)-6-(4-fluorophenyl)-1-methylpyridin-1-ium iodide salt], the MIC SA USA300 against Staphylococcus aureus was 2 µg/mL. This molecule also had an MIC EF 15951 in the assay on Enterococcus faecalis of 1 µg/mL.
Taken in the same sequence, the figures for `CN(C)c1ccc(-c2cc(/C=C/c3ccc(N(C)CCC#N)cc3)[n+](C)c(-c3ccc(F)cc3)c2)cc1.[I-]` [Compound 3jc01-2, (E)-2-(4-((2-cyanoethyl)(methyl)amino)styryl)-4-(4-(dimethylamino)phenyl)-6-(4-fluorophenyl)-1-methylpyridin-1-ium iodide salt] were 32 µg/mL and 16 µg/mL.
Turning to `CN(CCC#N)c1ccc(/C=C/c2cc(-c3ccc(I)cc3)cc(-c3ccc(F)cc3)[n+]2C)cc1.[I-]` [Compound 3jc07-10, (E)-2-(4-((2-cyanoethyl)(methyl)amino)styryl)-6-(4-fluorophenyl)-4-(4-iodophenyl)-1-methylpyridin-1-ium iodide salt], the MIC SA USA300 against Staphylococcus aureus stood at 32 µg/mL.
Same read-out and setting: the result for `CN(C)c1ccc(/C=C/c2cc(-c3ccc(I)cc3)cc(-c3ccc(Br)cc3)[n+]2C)cc1.[I-]` [Compound 3jc07-11, (E)-2-(4-bromophenyl)-6-(4-(dimethylamino)styryl)-4-(4-iodophenyl)-1-methylpyridin-1-ium iodide salt] reads 4 µg/mL; that for `CN(CCC#N)c1ccc(/C=C/c2cc(-c3ccc(I)cc3)cc(-c3ccc(Br)cc3)[n+]2C)cc1` [Compound 3jc07-12, (E)-2-(4-bromophenyl)-6-(4-((2-cyanoethyl)(methyl)amino)styryl)-4-(4-iodophenyl)-1-methylpyridin-1-ium iodide salt], 32 µg/mL; that for `CN(CCC#N)c1ccc(/C=C/c2cc(-c3ccc(F)cc3)cc(-c3ccc(F)cc3)[o+]2)cc1.F[B-](F)(F)F` [Compound 3jc09-1, (E)-2-(4-((2-cyanoethyl)(methyl)amino)styryl)-4,6-bis(4-fluorophenyl)pyrylium boron tetrafluoride salt], more than 64 µg/mL.
Still for that read-out and setting: to `CN(CCC#N)c1ccc(/C=C/c2cc(-c3ccc(Br)cc3)cc(-c3ccc(Br)cc3)[o+]2)cc1` [Compound 3jc09-2, (E)-2,4-bis(4-bromophenyl)-6-(4-((2-cyanoethyl)(methyl)amino)styryl)pyrylium boron tetrafluoride salt] belongs more than 64 µg/mL.
With `CN(C)c1ccc(/C=C/c2cc(-c3ccc(Br)cc3)cc(-c3ccc(Br)cc3)[o+]2)cc1` [drawing 88, (E)-2,4-bis(4-bromophenyl)-6-(4-(dimethylamino)styryl)pyrylium boron tetrafluoride salt], the “S. aureus Killing” value in the assay with Staphylococcus aureus is recorded as 32.
For the molecule `CN1/C(=C/C=C/c2cc(-c3ccccc3)cc(-c3ccccc3)[o+]2)C(C)(C)c2ccccc21` [drawing 116, 2,4-diphenyl~6-((1E,3E)-3-(1,3,3-trimethylindolin-2-ylidene)prop-1-en-1-yl)pyrylium boron tetrafluoride salt], in the assay on Staphylococcus aureus, the “S. aureus Killing” value came out at 0.5.
On the same count and under the same terms, to `Cc1ccc(-c2cc(/C=C/C=C3/N(C)c4ccccc4C3(C)C)[o+]c(-c3ccc(C)cc3)c2)cc1` [drawing 117, 2,4-di-p-tolyl-6-((1E,3E)-3-(1,3,3-trimethylindolin-2-ylidene)prop-1-en-1-yl)pyrylium boron tetrafluoride salt] belongs 1.
On the same count and under the same terms, the result for `CCc1ccc(-c2cc(/C=C/c3cc4c5c(c3)CCCN5CCC4)[o+]c(-c3ccc(CC)cc3)c2)cc1` [drawing 120, (E)-2,4-bis(4-ethylphenyl)-6-(2-(1,2,3,5,6,7-hexahydropyrido [3,2,1-ij]quinolin-9-yl)vinyl)pyrylium boron tetrafluoride salt] reads 1; that for `Cc1ccc(-c2cc(/C=C/c3cc4c5c(c3)CCCN5CCC4)[o+]c(-c3ccc(C)c(C)c3)c2)cc1C` [drawing 122, (E)-2,4-bis(3.4-dimethyiphenyl)-6-(2-(1,2,3,5,6,7-hexahydropyrido [3,2,1-ij]quinolin-9-yl)vinyl)pyrylium boron tetrafluoride salt], 0.5.

(Values after patent US10941114B2, “Small molecule lipid II inhibitors” (University Of Maryland, Baltimore, priority 2015, dated 2021).)
